Entries after “also recorded” stand apart in the source; their conditions may differ. Where two headings read alike, the source gives them in different places.
How the values were obtained:
GRO-α production by MDM = type: cell-based, human
IL-8 production by MDM = IL-8 production by MDM (ELISA of supernatants); details: added prior to exposure to HIV-1
HIV-1BaL [1] = assay: HIV-1BaL replication in monocyte-derived macrophages (MDM), RT activity in supernatants; type: cell-based; details: for increase of HIV-1BaL replication in MDM by exogenous chemokine, mean over donors: IL-8: 17 donors, GRO-α: 5 donors
Protocol: (§1) HIV-1 Infection of MDM and PBL: For each experiment, multiple wells of MDM or PBL were infected with equal RT counts of HIV-1 (30–300×10^6 CPM of RT used per 10^5 cells). This amount of CPM of RT activity per cell corresponds to a multiplicity of infection (MOI) of between 0.01 and 0.1 as determined by titration on HOS-CD4-CCR5 and CEM-SS cell lines and quantitation of proviral DNA in PBMC 24 h after infection. MDM were cultured for 3 d prior to infection, washed after an overnight incubation with the virus, and cultured in DME+10% FBS. PHA-activated PBL were washed and incubated in RPMI+10% FBS+IL-2 (40 U/ml) overnight. CD8+cells were depleted with magnetic Dynabeads® M-450 CD8 according to the manufacturer's instructions (Dynal, Lake Success, N.Y.). CD8-depleted PBL were then incubated with HIV-1 for 4 h, washed and incubated in media +IL-2. A portion of the media (25%) was removed from the MDM and PBL supernatants and replaced twice weekly.

HIV-1BRU [2] = assay: HIV-1BRU replication in PHA-activated PBL / T lymphocytes, RT activity in supernatants; type: cell-based; details: for increase of HIV-1BRU replication in PBL by exogenous chemokine, mean over donors: IL-8: 5 donors, CD8-depleted PBL, GRO-α: n=7, p=0.027
Protocol: as §1

HIV-1BaL [3] = assay: HIV-1BaL replication in activated (CD8-depleted) PBL, RT activity; type: cell-based; details: IL-8: 11 donors; GRO-α: n=6
Protocol: as §1

HIV-1BRU [4] = assay: HIV-1BRU (X4) infection of MDM, RT activity; type: cell-based; details: MDM from multiple donors
Protocol: as §1

HIV-1 = details: R5 and X4 isolates of HIV-1 and HIV-2
Protocol: Reverse Transcriptase (RT) Assay: HIV replication was determined by quantification of the RT activity present in the supernatants using a poly(A)-oligo(dT) template primer as previously described. […] RT activity was assayed using ^32P-labeled deoxythymidine triphosphate incorporated in DNA bound to DE81 paper (Whatman) and quantified using either the Series 400 PhosphorImager and ImageQuant® software (Molecular Dynamics, Sunnyvale, Calif.) or a Betascope radioisotope imaging system. RT activity is reported as phosphoimager counts except when labeled “counts” to signify beta counts.

IL-8 promoter = IL-8 promoter CAT reporter in transfected U937 cells; type: cell-based, human; details: Tat co-transfection alone, or TNF-α 1 ng/ml alone
Protocol: Transfection of the U937 Promonocyte Cell Line: U937 cells were transfected by the DEAE-dextran method with 1 μg of HIV-1 Tat (pCG-Tat1) or control vector (pCG) and 10 μg of a plasmid containing the chloramphenicol acetyl transferase (CAT) reporter gene downstream of either sequence which lacks eukaryotic promoter and enhancer sequences (pCAT-Basic, Promega, Madison, Wis.), nucleotides −254 to +19 of the IL-8 promoter (pCAT-IL-8), or the HIV-1-LTR. The cells were either left untreated or treated with TNF-α (1 ng/ml) at 24 hours after transfection and harvested 48 hours after transfection. CAT activity was quantified and normalized for the amount of protein. Values near 6000 represent complete acetylation of chloramphenicol (100%).

CD14+ monocytes = assay: Intracellular IL-8 staining of PBMC (flow cytometry); type: cell-based, human; details: staining after 6 hours; control monocytes 10%
Protocol: Intracellular Cytokine Staining: PBMC were collected as described above and cultured in RPMI+10% FBS. The next day, PBMC were treated for 6 h with monensin (GolgiStop™, PharMingen) and incubated with virus or TNF-α. PBMC were then collected and stained for the presence of intracellular IL-8 and various cell surface markers according to the manufacturer's instructions (PharMingen). Adherent cells were collected by incubation in PBS+10 mM EDTA for 30 min at 4° C. PBMC (both adherent and non-adherent cells) were incubated in staining buffer (DPBS+1% FBS+0.09% sodium azide) with mouse IgG for 20 min at 4° C. to block non-specific binding of IgG to target cells. PBMC were then washed with staining buffer and stained for cell surface antigens for 30 min at 4° C. using R-phycoerythrin (PE)-conjugated mouse anti-human CD4 (PE-CD4) or CD14 (PE-CD14) monoclonal antibodies or PE-mouse IgG1, κ isotype control immunoglobulin (PharMingen). After two washes with staining buffer, PBMC were fixed and permeabilized with Cytofix/Cytoperm (PharMingen). PBMC were washed twice in Perm/Wash solution and then stained with either fluorescein isothiocyanate (FITC)-conjugated mouse anti-human IL-8 monoclonal antibody or FITC-mouse IgG2a, κ immunoglobulin isotype standard (PharMingen). Analysis of cell staining was performed using an EPICS Elite cell sorter (Beckman-Coulter, Fullerton, Calif.). […]

monocytes = assay: Intracellular GRO staining of PBMC (flow cytometry); type: cell-based, human; details: staining after 6 hours
Protocol: Intracellular cytokine staining: PBMC were collected as described above and cultured in RPMI+10% FBS. The next day, PBMC were treated for 6 h with monensin (GolgiStop™, PharMingen) and incubated with virus, viral proteins, or TNF-α as indicated in the figure legend. PBMC were then collected and stained for the presence of intracellular GRO according to the manufacturer's instructions (PharMingen). Adherent cells were collected by incubation in PBS+10 mM EDTA for 30 min at 4° C. PBMC (both adherent and non-adherent cells) were then incubated in staining buffer (DPBS+1% FBS+0.09% sodium azide) with mouse IgG for 20 min at 4° C. to block non-specific binding of IgG to target cells. After two washes with staining buffer, PBMC were fixed and permeabilized with Cytofix/Cytoperm (PharMingen). PBMC were washed twice in Perm/Wash solution and then stained with either R-phycoerythrin (PE)-conjugated mouse anti-human GRO monoclonal antibody (GRO-PE) or PE-mouse IgG1, κ isotype control immunoglobulin (PharMingen). Analysis of cell staining was performed using an EPICS Elite cell sorter (Beckman-Coulter, Fullerton, Calif.). The monocyte and lymphocyte subpopulations were gated according to the pattern of forward scatter and side scatter.

MDM = assay: MTT assay of cellular viability, proliferation and activation in infected MDM; type: cell-based, human
Protocol: FIG. 3. […] MDM were treated as in FIGS. 1 and 2, and RT activity was measured every three to four days. MDM were also analyzed on day 13 by MTT assay (a measure of cellular viability, proliferation, and activation). Viability and activation was changed by less than 20% at all of the doses evaluated. For each treatment, viral replication was normalized against viability (RT activity/MTT assay) and then expressed relative to the control (no treatment). Data shown are the mean of three experiments;
In a preferred embodiment, the inhibitor is SB225002, a small molecular weight inhibitor that is an antagonist of IL-8 binding to CXCR2. In an alternate preferred embodiment, the inhibitor is antileukinate, a synthetic peptide inhibitor that interferes with both IL-8 and GRO-α binding to receptors. […] Infection of PBL with HIV-1BRU was inhibited by both the small molecule inhibitor, SB225002 (FIG. 29A), and the peptide, antileukinate (FIG. 29B). […] Cellular viability, proliferation, and activation were also analyzed in the infected cells by performing an MTT assay. […] Similarly, doses of antileukinate up to 10^−4 M in PBL and 10^−6 M in MDM reduced cellular viability by not more than 20%, and doses as low as 10^−8 M were effective at inhibiting HIV-1 replication. […]

PBL = type: cell-based, human
Excerpt: In a preferred embodiment, the inhibitor is SB225002, a small molecular weight inhibitor that is an antagonist of IL-8 binding to CXCR2. In an alternate preferred embodiment, the inhibitor is antileukinate, a synthetic peptide inhibitor that interferes with both IL-8 and GRO-α binding to receptors. […] Infection of PBL with HIV-1BRU was inhibited by both the small molecule inhibitor, SB225002 (FIG. 29A), and the peptide, antileukinate (FIG. 29B). […] Cellular viability, proliferation, and activation were also analyzed in the infected cells by performing an MTT assay. […] Similarly, doses of antileukinate up to 10^−4 M in PBL and 10^−6 M in MDM reduced cellular viability by not more than 20%, and doses as low as 10^−8 M were effective at inhibiting HIV-1 replication. […] The mean decreases in HIV-1BaL replication in MDM were 4.0±1.3 for 1000 nM SB225002 (p=0.019) and 2.6±0.6 for 10^−6 M antileukinate (p=0.002) relative to controls.

polymixin B was tested, and the “HIV-1BRU-induced GRO-α production by MDM, sensitivity to inhibitor” value (GRO-α production by MDM; supernatants 20 hours after exposure to virus) was “did not prevent the HIV-1BRU-induced increases in GRO-α” and the “HIV-induced IL-8 production by MDM, effect of antibody or agent” value (IL-8 production by MDM) was “did not prevent the HIV-induced increase in IL-8 production”.

For “IL-8: recombinant human IL-8, C-X-C chemokine”, the “HIV-1BaL replication in MDM, effect of exogenous chemokine” value (“HIV-1BaL replication in MDM, effect” below) (HIV-1BaL [1]) was “augmented”, the “increase of HIV-1BaL replication in MDM by exogenous chemokine, mean over donors” value (HIV-1BaL [1]) was 6.2 fold and the “increase of HIV-1BRU replication in PBL by exogenous chemokine, mean over donors” value (HIV-1BRU [2]) was 1.7 fold. For the same molecule, the “doses that stimulated viral replication” value (HIV-1BRU [2]; PHA-activated, CD8-depleted PBL (FIG. 8C)) was “exceeding 5 ng/ml”, the “increase of HIV-1BaL replication in PBL by exogenous chemokine, mean over donors” value (HIV-1BaL [3]) was 4.8 fold and the “susceptibility of MDM to productive infection with X4 HIV (HIV-1BRU) with exogenous chemokine” value (HIV-1BRU [4]) was “does not confer susceptibility to productive infection with X4 HIV on MDM”. The “replication of other isolates tested, effect of exogenous chemokine” value (HIV-1) was “stimulated the replication of all other isolates tested”.

In the case of TNF-α, the “IL-8 promoter activity, effect of single stimulus” value (IL-8 promoter) is reported as “activated”, the “CD14+ monocytes in which IL-8 was present” value (CD14+ monocytes) is reported as greater than 90% and the “monocytes in which GRO was present” value (monocytes) is reported as “large percentage of monocytes”.

In the case of O=C(Nc1ccc([N+](=O)[O-])cc1O)Nc1ccccc1Br [SB225002, N-(2-hydroxy-4-nitrophenyl)-N′-(2-bromophenyl)urea, reference compound], the “mean decrease in HIV-1BaL replication in MDM relative to controls” value (HIV-1BaL [1]; 1000 nM, p=0.019) is reported as 4.0±1.3, the “HIV replication in MDM, effect of inhibitor” value (HIV-1BaL [1]; RT activity normalized against MTT, relative to no treatment, mean of three experiments) is reported as “significantly decrease HIV replication” and the “HIV-1BRU infection/replication in PBL, effect of inhibitor” value (HIV-1BRU [2]; treated every three days from one day before infection, RT activity days 3, 6, 9) is reported as “decreases HIV-1 replication; also recorded: inhibited”. For the same molecule, the “cellular viability (MTT), effect of the doses used” value (MDM) was “did not negatively affect cellular viability” and the “cellular viability (MTT), effect of the doses used” value (PBL) was “did not negatively affect cellular viability”.

In the case of SDF-1α, the “GRO-α production by MDM, effect of treatment with the agent alone” value (GRO-α production by MDM) is reported as “not produced”.

O=c1c(-c2ccc(O)cc2)coc2cc(O)cc(O)c12 [genistein] was tested, and the “HIV-1BRU-induced GRO-α production by MDM, sensitivity to inhibitor” value (GRO-α production by MDM) was “sensitive”.

In the case of “GRO-α: recombinant C-X-C chemokine growth-regulated oncogene-alpha, ligand of CXCR2”, the “HIV-1BaL replication in MDM, effect” value (HIV-1BaL [1]) is reported as “augmented”, the “increase of HIV-1BaL replication in MDM by exogenous chemokine, mean over donors” value (HIV-1BaL [1]) is reported as 14 fold and the “increase of HIV-1BRU replication in PBL by exogenous chemokine, mean over donors” value (HIV-1BRU [2]) is reported as 2.4 fold. The “increase of HIV-1BaL replication in PBL by exogenous chemokine, mean over donors” value (HIV-1BaL [3]) was 5 fold, the “susceptibility of MDM to productive infection with X4 HIV (HIV-1BRU) with exogenous chemokine” value (HIV-1BRU [4]) was “does not confer susceptibility to productive infection with X4 HIV on MDM” and the “replication of other isolates tested, effect of exogenous chemokine” value (HIV-1) was “stimulated the replication of all isolates tested”.

For IP-10: CXCR3 ligand, C-X-C chemokine, the “HIV-1BaL replication in MDM, effect” value (HIV-1BaL [1]) was “stimulation” and the “HIV-1BRU replication in peripheral blood lymphocytes, effect of exogenous chemokine” value (“HIV-1BRU replication … of exogenous chemokine” for short) (HIV-1BRU [2]) was “stimulation”.

CO[C@H]1[C@@H](OC)C[C@H](C)[C@@H](OC)C2=CC(=O)C=C(NC(=O)/C(C)=C/C=C\[C@H](OC)[C@@H](OC(N)=O)/C(C)=C/[C@@H]1C)C2=O [herbimycin A] was tested, and the “HIV-1BRU-induced GRO-α production by MDM, sensitivity to inhibitor” value (GRO-α production by MDM) was “sensitive”.

B1: I-TAC: CXCR3 ligand, C-X-C chemokine (protein, UniProt O14625 22-94, looked up)
C-X-C motif chemokine 11: FPMFKRGRCLCIGPGVKAVKVADIEKASIMYPSNNCDKIEVIITLKENKGQRCLNPKSKQARLIIKKVERKNF
For B1, the “HIV-1BRU replication … of exogenous chemokine” value (HIV-1BRU [2]) was “stimulation”.

B2: RANTES: C-C chemokine which binds to CCR5 and CCR1 (protein, UniProt P13501 24-91, looked up)
C-C motif chemokine 5: SPYSSDTTPCCFAYIARPLPRAHIKEYFYTSGKCSNPAVVFVTRKNRQVCANPEKKWVREYINSLEMS
In the case of B2, the “GRO-α production by MDM, effect of treatment with the agent alone” value (GRO-α production by MDM) is reported as “nor RANTES, which binds to CCR5 and CCR1, was able to stimulate GRO-α production”.

B3: MIG: CXCR3 ligand, C-X-C chemokine (protein, UniProt Q07325 23-125, looked up)
C-X-C motif chemokine 9: TPVVRKGRCSCISTNQGTIHLQSLKDLKQFAPSPSCEKIEIIATLKNGVQTCLNPDSADVKELIKKWEKQVSQKKKQKNGKKHQKKKVLKVRKSQRSRQKKTT
In the case of B3, the “HIV-1BRU replication … of exogenous chemokine” value (HIV-1BRU [2]) is reported as “stimulation”.

— patent publication US7052676B2, “Methods for inhibition of HIV replication using a small molecule inhibitor” (priority 2000, dated 2006)
